Assay results reported in patent publication US9969724B2, “Factor IXa inhibitors” (Merck Sharp & Dohme Corp., priority 2014, dated 2018).

molecular target: human factor IXa (Homo sapiens (Human), UniProt P00740); experiment: Determination of Inhibitory Activity Against Factor IXa; format: biochemical; settings: Factor IXa enzyme assay human; read-out: FIXa IC50
Method: Inhibitory activity against factor IXa was tested using the substrate SPECTROFLUOR FIXa (american diagnostica inc.; 500 West Avenue, Stamford, Conn. 06902 USA; Pr. No. 299F) and human factor IXa (american diagnostica inc.; Pr. No. 449b). Test substances were dissolved in buffer A (50 mM α,α,α-tris(hydroxymethyl) methylamine (Tris), 100 mM NaCl, 5 mM CaCl2, 15% (v/v) ethylene glycol, pH 8.0) were mixed with factor IXa (0.1 μg/ml final concentration). The enzyme reaction was started by addition of SPECTROFLUOR FIXa (100 μM final concentration). After incubation for 60 minutes at room temperature, the reaction was stopped by the addition of 20% (v/v) acetic acid solution, and then the fluorescence value was measured (Excitation Wavelength: 355 nm, Emission Wavelength; 460 nm) in a microtiter plate reader (ARVO 1420 Multilabel Counter; PerkinElmer).
The IC50 was calculated from a dilution series of the test substance with the aid of the software, Symyx Assay Explorer (Symyx Technologies, Inc.).

Chain of human factor IXa (P00740 227-461): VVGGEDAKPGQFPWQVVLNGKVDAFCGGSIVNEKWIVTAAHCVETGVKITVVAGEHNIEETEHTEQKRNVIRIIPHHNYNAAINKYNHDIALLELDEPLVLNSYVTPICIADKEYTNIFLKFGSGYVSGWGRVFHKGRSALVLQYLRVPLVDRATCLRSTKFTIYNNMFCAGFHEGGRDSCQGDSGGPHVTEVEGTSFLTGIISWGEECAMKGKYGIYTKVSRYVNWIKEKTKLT
Chain of human factor IXa (P00740 47-191 partner): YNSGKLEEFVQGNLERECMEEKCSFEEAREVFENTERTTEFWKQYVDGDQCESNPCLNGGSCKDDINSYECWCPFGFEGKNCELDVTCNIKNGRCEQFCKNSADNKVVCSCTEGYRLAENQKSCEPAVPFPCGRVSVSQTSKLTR

SMILES	IC50 [nM]
C[C@H]1CN(c2cccc3c(N)noc23)C[C@]1(C)NC(=O)c1c(Cl)cc(-n2cnnc2)cc1Cl (relative stereo) [Example 7, N-((3R*,4S*)-1-(3-Aminobenzo[d]isoxazol-7-yl)-3,4-dimethylpyrrolidin-3-yl)-2,6-dichloro-4-(4H-1,2,4-triazol-4-yl)benzamide]	≤ 100
Nc1noc2c(N3C[C@H](NC(=O)c4c(Cl)cc(-n5cnnc5)cc4Cl)[C@@H](O)C3)cccc12 (relative stereo) [Example 8, N-((3S*,4S*)-1-(3-Aminobenzo[d]isoxazol-7-yl)-4-hydroxypyrrolidin-3-yl)-2,6-dichloro-4-(4H-1,2,4-triazol-4-yl)benzamide]	≤ 100
Nc1noc2c(N3CCC(NC(=O)c4ccc(-n5cnnc5)cc4Cl)C3)cccc12 (stereo not drawn) [Example 1, N-(1-(3-Aminobenzo[d]isoxazol-7-yl)pyrrolidin-3-yl)-2-chloro-4-(4H-1,2,4-triazol-4-yl)benzamide]	≤ 100
CC1(NC(=O)c2c(Cl)cc(-n3cnnc3)cc2Cl)CCN(c2cccc3c(N)noc23)C1 (stereo not drawn) [Example 2, N-(1-(3-Aminobenzo[d]isoxazol-7-yl)-3-methylpyrrolidin-3-yl)-2,6-dichloro-4-(4H-1,2,4-triazol-4-yl)benzamide]	≤ 100
Nc1nsc2c(N3CCC(NC(=O)c4c(Cl)cc(-n5cnnc5)cc4Cl)C3)cccc12 (stereo not drawn) [Example 4, N-(1-(3-Aminobenzo[d]isothiazol-7-yl)pyrrolidin-3-yl)-2,6-dichloro-4-(4H-1,2,4-triazol-4-yl)benzamide]	100 to 1000
Nc1noc2c(N3CCC(NC(=O)c4ccc(-n5cnnc5)cc4Cl)C3)nccc12 (stereo not drawn) [Example 5, N-(1-(3-Aminoisoxazolo[5,4-c]pyridin-7-yl)pyrrolidin-3-yl)-2-chloro-4-(4H-1,2,4-triazol-4-yl)benzamide]	≤ 100
Cc1ncn(-c2ccc(C(=O)N[C@@H]3CCN(c4ncc(Cl)c5c(N)noc45)C3)c(Cl)c2)n1 [Example 11, (R)—N-(1-(3-Amino-4-chloroisoxazolo[5,4-c]pyridin-7-yl)pyrrolidin-3-yl)-2-chloro-4-(3-methyl-1H-1,2,4-triazol-1-yl)benzamide]	≤ 100
Nc1noc2c(N3CC[C@@H](NC(=O)c4ccc(-n5cnc(CO)n5)cc4Cl)C3)cc(Cl)cc12 [Example 16, (R)—N-(1-(3-Amino-5-chlorobenzo[d]isoxazol-7-yl)pyrrolidin-3-yl)-2-chloro-4-(3-(hydroxymethyl)-1H-1,2,4-triazol-1-yl)benzamide]	≤ 100
Nc1noc2c(N3CC[C@@H](NC(=O)c4ccc(-n5cnc(C6CC6)n5)cc4Cl)C3)cc(Cl)cc12 [Example 17, (R)—N-(1-(3-Amino-5-chlorobenzo[d]isoxazol-7-yl)pyrrolidin-3-yl)-2-chloro-4-(3-cyclopropyl-1H-1,2,4-triazol-1-yl)benzamide]	≤ 100
Cc1cc(-n2cncn2)ccc1C(=O)N[C@@H]1CCN(c2ccc(Cl)c3c(N)noc23)C1 [Example 19, (R)—N-(1-(3-Amino-4-chlorobenzo[d]isoxazol-7-yl)pyrrolidin-3-yl)-2-methyl-4-(1H-1,2,4-triazol-1-yl)benzamide]	100 to 1000
COc1ncc(-c2ccc(C(=O)N[C@@H]3CCN(c4ncc(Cl)c5c(N)noc45)C3)c(Cl)c2)cn1 [Example 21, (R)—N-(1-(3-Amino-4-chloroisoxazolo[5,4-c]pyridin-7-yl)pyrrolidin-3-yl)-2-chloro-4-(2-methoxypyrimidin-5-yl)benzamide]	≤ 100
Nc1noc2c(N3CC[C@@H](NC(=O)c4ccc(-n5cncn5)cc4Cl)C3)ncc(Cl)c12 [Example 24, (R)—N-(1-(3-Amino-4-chloroisoxazolo[5,4-c]pyridin-7-yl)pyrrolidin-3-yl)-2-chloro-4-(1H-1,2,4-triazol-1-yl)benzamide]	≤ 100
Nc1noc2c(N3CC[C@@H](NC(=O)c4ccc(-n5cnnc5C(F)F)cc4Cl)C3)ncc(Cl)c12 [Example 28, (R)—N-(1-(3-Amino-4-chloroisoxazolo[5,4-c]pyridin-7-yl)pyrrolidin-3-yl)-2-chloro-4-(3-(difluoromethyl)-4H-1,2,4-triazol-4-yl)benzamide]	≤ 100
Nc1noc2c(N3CC[C@@H](NC(=O)c4ccc(-n5cnc6ccccc65)cc4Cl)C3)ncc(Cl)c12 [Example 29, (R)—N-(1-(3-Amino-4-chloroisoxazolo[5,4-c]pyridin-7-yl)pyrrolidin-3-yl)-4-(1H-benzo[d]imidazol-1-yl)-2-chlorobenzamide]	≤ 100
Nc1noc2c(N3CC[C@@H](NC(=O)c4ccc(-c5cncc(CCO)c5)cc4Cl)C3)ncc(Cl)c12 [Example 31, (R)—N-(1-(3-Amino-4-chloroisoxazolo[5,4-c]pyridin-7-yl)pyrrolidin-3-yl)-2-chloro-4-(5-(2-hydroxyethyl)pyridin-3-yl)benzamide]	≤ 100

The remaining lines, values ahead:

IC50 [nM]	SMILES
≤ 100	Cc1cc(N2CCC(NC(=O)c3c(Cl)cc(-n4cnc(C)n4)cc3Cl)C2)c2onc(N)c2c1 (stereo not drawn) [Example 6, N-(1-(3-Amino-5-methylbenzo[d]isoxazol-7-yl)pyrrolidin-3-yl)-2,6-dichloro-4-(3-methyl-1H-1,2,4-triazol-1-yl)benzamide]
≤ 100	Nc1noc2c(N3CC[C@@H](NC(=O)c4ccc(-n5cnnc5)cc4Cl)C3)ccc(Cl)c12 [Example 9, (R)—N-(1-(3-Amino-4-chlorobenzo[d]isoxazol-7-yl)pyrrolidin-3-yl)-2-chloro-4-(4H-1,2,4-triazol-4-yl)benzamide]
≤ 100	Nc1noc2c(N3CC[C@@H](NC(=O)c4ccc(-n5cnnc5)cc4Cl)C3)cc(Cl)cc12 [Example 10, (R)—N-(1-(3-Amino-5-chlorobenzo[d]isoxazol-7-yl)pyrrolidin-3-yl)-2-chloro-4-(4H-1,2,4-triazol-4-yl)benzamide]
≤ 100	Cc1cc(N2CC[C@@H](NC(=O)c3ccc(-n4cnnc4)cc3Cl)C2)c2onc(N)c2c1Cl [Example 12, (R)—N-(1-(3-Amino-4-chloro-5-methylbenzo[d]isoxazol-7-yl)pyrrolidin-3-yl)-2-chloro-4-(4H-1,2,4-triazol-4-yl)benzamide]
100 to 1000	Nc1noc2c(N3CC[C@@H](NC(=O)c4ccc(-n5cnnc5)cc4Cl)C3)ccc(F)c12 [Example 13, (R)—N-(1-(3-Amino-4-fluorobenzo[d]isoxazol-7-yl)pyrrolidin-3-yl)-2-chloro-4-(4H-1,2,4-triazol-4-yl)benzamide]
≤ 100	Nc1noc2c(N3CC[C@@H](NC(=O)c4ccc(-n5cnnc5)cc4Cl)C3)cc(Cl)c(Cl)c12 [Example 14, (R)—N-(1-(3-Amino-4,5-dichlorobenzo[d]isoxazol-7-yl)pyrrolidin-3-yl)-2-chloro-4-(4H-1,2,4-triazol-4-yl)benzamide]
≤ 100	Cc1ncn(-c2ccc(C(=O)NC3(C)CCN(c4cc(Cl)cc5c(N)noc45)C3)c(Cl)c2)n1 (stereo not drawn) [Example 15, N-(1-(3-Amino-5-chlorobenzo[d]isoxazol-7-yl)-3-methylpyrrolidin-3-yl)-2-chloro-4-(3-methyl-1H-1,2,4-triazol-1-yl)benzamide]
100 to 1000	Nc1noc2c(N3CC[C@@H](NC(=O)c4ccc(-n5cncn5)cc4F)C3)ccc(Cl)c12 [Example 18, (R)—N-(1-(3-Amino-4-chlorobenzo[d]isoxazol-7-yl)pyrrolidin-3-yl)-2-fluoro-4-(1H-1,2,4-triazol-1-yl)benzamide]
≤ 100	Nc1noc2c(N3CC[C@@H](NC(=O)c4ccc(-c5cncnc5)cc4Cl)C3)ncc(Cl)c12 [Example 20, (R)—N-(1-(3-Amino-4-chloroisoxazolo[5,4-c]pyridin-7-yl)pyrrolidin-3-yl)-2-chloro-4-(pyrimidin-5-yl)benzamide]
≤ 100	N#Cc1ncc(-c2ccc(C(=O)N[C@@H]3CCN(c4ncc(Cl)c5c(N)noc45)C3)c(Cl)c2)cn1 [Example 22, (R)—N-(1-(3-Amino-4-chloroisoxazolo[5,4-c]pyridin-7-yl)pyrrolidin-3-yl)-2-chloro-4-(2-cyanopyrimidin-5-yl)benzamide]
≤ 100	Nc1noc2c(N3CC[C@@H](NC(=O)c4ccc(-n5cnc(CCO)n5)cc4Cl)C3)ccc(Cl)c12 [Example 23, (R)—N-(1-(3-Amino-4-chlorobenzo[d]isoxazol-7-yl)pyrrolidin-3-yl)-2-chloro-4-(3-(2-hydroxyethyl)-1H-1,2,4-triazol-1-yl)benzamide]
≤ 100	Nc1noc2c(N3CC[C@@H](NC(=O)c4ccc(-c5cncc(CO)c5)cc4Cl)C3)ccc(Cl)c12 [Example 25, (R)—N-(1-(3-Amino-4-chlorobenzo[d]isoxazol-7-yl)pyrrolidin-3-yl)-2-chloro-4-(5-(hydroxymethyl)pyridin-3-yl)benzamide]
≤ 100	Nc1noc2c(N3CC[C@@H](NC(=O)c4ccc(-n5cc(CCO)cn5)cc4Cl)C3)ccc(Cl)c12 [Example 26, (R)—N-(1-(3-Amino-4-chlorobenzo[d]isoxazol-7-yl)pyrrolidin-3-yl)-2-chloro-4-(4-(2-hydroxyethyl)-1H-pyrazol-1-yl)benzamide]
≤ 100	Nc1noc2c(N3CC[C@@H](NC(=O)c4ccc(-n5cnc(CCO)c5)cc4Cl)C3)ncc(Cl)c12 [Example 27, (R)—N-(1-(3-Amino-4-chloroisoxazolo[5,4-c]pyridin-7-yl)pyrrolidin-3-yl)-2-chloro-4-(4-(2-hydroxyethyl)-1H-imidazol-1-yl)benzamide]
≤ 100	Nc1noc2c(N3CC[C@@H](NC(=O)c4ccc(-c5ccnnc5)cc4Cl)C3)ncc(Cl)c12 [Example 30, (R)—N-(1-(3-Amino-4-chloroisoxazolo[5,4-c]pyridin-7-yl)pyrrolidin-3-yl)-2-chloro-4-(pyridazin-4-yl)benzamide]
